US20250213496A1, “LIPID NANOPARTICLES AND PREPARATION METHODS AND USE THEREOF” (priority 2022, published 2025)

Experiment: HPLC quantification of retinoid compound in LNP (encapsulation efficiency)
Format: physicochemical
Settings: HPLC after diluting LNP with ethanol; AM80 275 nm, ATRA 350 nm
Protocol: The content of the retinoid compound in the LNP is determined by high performance liquid chromatography (HPLC), including: preparing a gradient dilution standard solution of ATRA or AM80, establishing the HPLC method, sequentially injecting 100 μL of different concentrations of the standard solution, and plotting the standard curve by using the ultraviolet absorption peak areas of different concentrations of ATRA or AM80. The five-component LNP is broken by ethanol with a volume more than 10 times the volume of the LNP, and the volume of each injection is controlled to be 100 μL; the peak area is substituted into the standard curve to obtain the content of ATRA or AM80 in the lipid solution.
Chromatographic conditions: Sunfire C18 column (150 mm×4.6 mm, 5 μm), column temperature (25° C.), mobile phase A (acetonitrile), mobile phase B (0.1 M triethylamine acetate buffer solution with a pH of 7.0), flow rate of 1.0 mL/min, and injection volume of 100 μL each time.
The standard solutions of AM80 with different concentrations were prepared with ethanol, and HPLC injection and gradient elution were performed. […] After diluting LNP with the ethanol, HPLC injection was performed, the AM80 content in the LNP solution was quantified according to the absorption peak area at 275 nm, and an encapsulation efficiency of AM80 is 45%-65%. […]

SMILES | encapsulation efficiency of retinoid compound in LNP
CC1(C)CCC(C)(C)c2cc(NC(=O)c3ccc(C(=O)O)cc3)ccc21 [AM80, tamibarotene] | 45%-65
CC1=C(/C=C/C(C)=C/C=C/C(C)=C/C(=O)O)C(C)(C)CCC1 [ATRA, all-trans-retinoic acid] | 40%-70
